Measured values: US10398723B1, “Hyaluronan-containing composition and use thereof for mitigation and/or prevention of inflammation and/or pain” (Viscos, LLC, priority 2015, dated 2019)

Tested on: whole blood culture
Experiment: inflammatory cell activation (CD69, CD25 expression) in whole blood culture
Format: cell-based
Conditions: samples from human subjects; 0.006 mg/mL, 0.05 g/mL or 0.4 mg/mL in culture medium; dose-dependent
Method: A dose of 0.006 mg/mL, […] or 0.4 mg/mL (concentration of formulation in culture medium) was employed, but any dose less than 0.006 mg/mL or greater than 0.4 mg/mL or between 0.006 mg/mL and 0.4 mg/mL (concentration of formulation in any diluent) is likewise within the scope of this disclosure. […] Activation of inflammatory cells was measured, and is verified by assays known in the art, by expression of CD69, a protein expressed on activated white blood cells including T lymphocytes, NK cells, monocytes and PMN cells. Activation of inflammatory cells was measured, and is verified by assays known in the art, by expression of CD25, the alpha chain of the low affinity interleukin-2 (IL-2) receptor. […] An increase such as that observed in this Example may be, by way of example and not of limitation, of at least about 1%, or of at least about 2%, or of at least about 5%, or of at least about 10%, or of at least about 20%, or of at least about 30%, or of at least about 40%, or of at least about 50%, or of at least about 60%, or of at least about 70%, or of at least about 80%, or of at least about 90%. A statistically significant decrease is a function of sample size and variability. […]

Molecule | inflammatory cell activation
Hyaluronan [HA] | decrease
CS(C)(=O)=O [MSM, methylsulfonylmethane] | decrease
